Experimental data taken from patent US20230235282A1, “SERUM-FREE INDUCTION METHOD FOR SENSORY NEURON CELL” (IREGENE THERAPEUTICS LTD, priority 2020, published 2023).
Where two headings read alike, the source gives them in different places.

Legend:
[1] = system: sensory neuron cells from CD34+-derived induced pluripotent stem cells; assay: Morphology / axon formation of induced sensory neuron cells; type: cell-based, human; settings: for axon formation: low (3 μM), medium (6 μM) and high (10 μM) concentration
Procedure: After obtaining the above-mentioned various sensory nerve precursor cells, the medium was removed, and cells were washed with DPBS, and then treated with 0.05% trypsin/EDTA at 37° C. for 5 minutes, and then cell digestion was terminated with DMEM. After the cells were washed and centrifuged, the cells were re-seeded in a T25 culture flask at 1-5×10^5 per plate, and the sensory nerve precursor cells were induced to differentiate and expand into mature sensory neurons by using sensory neuron cell medium. The conditions for cell culture were 37° C., 5% CO2.

[2] = system: sensory neuron cells from CD34+-derived induced pluripotent stem cells; assay: Q-PCR of marker genes in induced sensory neuron cells
Procedure: Total RNA from different sensory neuron cells was extracted by RNeasy Mini or Micro Kit (QIAGEN), and cDNA was synthesized from 1 mg RNA by SuperScript III First-Strand Synthesis System (Invitrogen). SYBR Premix Ex Taq (TaKaRa) and Thermal Cycler Dice Real Time System (TaKaRa) were used for labeling and reaction of Quantitative PCR, and beta-Actin was used as internal control. All data were analyzed by delta-Ct method. Triplicates were used for each group of experiments, and statistics were performed with ANOVA.

[3] = Osmotic pressure of the culture system by freezing point osmometer; type: physicochemical
Procedure: In order to observe the effect of different concentrations of glycine-glutamine monohydrate on osmotic pressure, the effect of different concentrations of glycine-glutamine monohydrate on the osmotic pressure of culture system was detected by using an automatic freezing point osmometer (FM-8P, Shanghai Medical University Instrument Co., Ltd.), and specific operations were performed according to the product manual (FM-8P, Shanghai Medical University Instrument Co., Ltd.).

sodium ion channel 1.7 = molecular target: T1, sodium ion channel 1.7 (Homo sapiens, UniProt Q15858); assay: MEA spontaneous discharge after PF-05089771; type: cell-based; settings: for electrophysiological strength of sodium ion channels of induced cells: various concentrations in induction/culture medium, after 1 μM PF-05089771, fibroblast-derived
T1 construct: endogenous in cells; host or cells: sensory neurons induced from human fibroblast-derived iPSCs

[4] = system: sensory nerve precursor cells from CD34+-derived cells; assay: Induction of sensory nerve precursor cells with different small molecules (morphology, Q-PCR of precursor markers); type: cell-based, human; settings: 5 μM in induction medium
Procedure: When the induced pluripotent stem cells reached 70% coverage, they were digested with 0.05% trypsin/EDTA for 5 min at 37° C., and the cell digestion was terminated by using DMEM. After the cells were washed and centrifuged, they were re-seeded in a T25 culture plate at 2×10^5 per flask, and cultured in a sensory neuron induction medium at 37° C., 5% CO2 (Panasonic, MCO-18AC) for 10 days until the formation of neural plate, which confirmed the formation of sensory nerve precursor cells.
All data were analyzed by delta-Ct method.
(5.2) Taking CD34+-derived cells as an example, different small molecules (5 μM RepSox, 5 μM SB525334 and 5 μM TEW-7197 molecules) were used to replace the LY2157299 in the sensory neuron induction medium N2GS212I-2 in Section (3.1) of Example 3; steps in Section (3.1) of Example 3 were repeated to observe the effects of different small molecules on the induced sensory nerve precursor cells.
(5.3) Taking CD34+-derived cells as an example, steps of Example 4 (4.3) were repeated by using the sensory nerve precursor cells obtained in (5.2), and the effects of different small molecules on the expression of neuronal precursor cell markers during the formation of sensory nerve precursor cells were observed. As shown in the figures, the different inhibitor molecules were not only able to form neuron precursor cells (forming a neural plate structure shown in the figure), but also able to increase the expressions of neuron precursor cell markers.

[5] = system: induced sensory neurons derived from fibroblasts; assay: Cyquant cell viability assay; type: cell-based, human; settings: day 1, 3, 5, 10; different concentrations of NT3
Procedure: The cell viability was quantitatively detected by Cyquant assay to compare the effects of different combinations of small molecule compounds on maintaining physiological states of cells during long-term culture of induced sensory neurons.
Cell plate coating was performed in a 96-well opaque cell culture plate according to the method in Example 4 (4.4.1). […] The cells were cultured in the sensory neuron cell induction medium of Example 3 with different concentrations of NT3, and the culture conditions were 37° C., 5% carbon dioxide, and the medium was half quantity changed every three days. The medium in the known method was used as a control group. Samples were taken at day 1, day 3, day 5 and day 10, respectively, and the cell viability detection was carried out by using CyQuant Kit (Invitrogen, X12223) according to the instruction manual, and date were read by SpectraMax i3 Multi-Mode Microplate Reader (VWR, ID3-STD).

T1 sequence (Q15858 whole entry): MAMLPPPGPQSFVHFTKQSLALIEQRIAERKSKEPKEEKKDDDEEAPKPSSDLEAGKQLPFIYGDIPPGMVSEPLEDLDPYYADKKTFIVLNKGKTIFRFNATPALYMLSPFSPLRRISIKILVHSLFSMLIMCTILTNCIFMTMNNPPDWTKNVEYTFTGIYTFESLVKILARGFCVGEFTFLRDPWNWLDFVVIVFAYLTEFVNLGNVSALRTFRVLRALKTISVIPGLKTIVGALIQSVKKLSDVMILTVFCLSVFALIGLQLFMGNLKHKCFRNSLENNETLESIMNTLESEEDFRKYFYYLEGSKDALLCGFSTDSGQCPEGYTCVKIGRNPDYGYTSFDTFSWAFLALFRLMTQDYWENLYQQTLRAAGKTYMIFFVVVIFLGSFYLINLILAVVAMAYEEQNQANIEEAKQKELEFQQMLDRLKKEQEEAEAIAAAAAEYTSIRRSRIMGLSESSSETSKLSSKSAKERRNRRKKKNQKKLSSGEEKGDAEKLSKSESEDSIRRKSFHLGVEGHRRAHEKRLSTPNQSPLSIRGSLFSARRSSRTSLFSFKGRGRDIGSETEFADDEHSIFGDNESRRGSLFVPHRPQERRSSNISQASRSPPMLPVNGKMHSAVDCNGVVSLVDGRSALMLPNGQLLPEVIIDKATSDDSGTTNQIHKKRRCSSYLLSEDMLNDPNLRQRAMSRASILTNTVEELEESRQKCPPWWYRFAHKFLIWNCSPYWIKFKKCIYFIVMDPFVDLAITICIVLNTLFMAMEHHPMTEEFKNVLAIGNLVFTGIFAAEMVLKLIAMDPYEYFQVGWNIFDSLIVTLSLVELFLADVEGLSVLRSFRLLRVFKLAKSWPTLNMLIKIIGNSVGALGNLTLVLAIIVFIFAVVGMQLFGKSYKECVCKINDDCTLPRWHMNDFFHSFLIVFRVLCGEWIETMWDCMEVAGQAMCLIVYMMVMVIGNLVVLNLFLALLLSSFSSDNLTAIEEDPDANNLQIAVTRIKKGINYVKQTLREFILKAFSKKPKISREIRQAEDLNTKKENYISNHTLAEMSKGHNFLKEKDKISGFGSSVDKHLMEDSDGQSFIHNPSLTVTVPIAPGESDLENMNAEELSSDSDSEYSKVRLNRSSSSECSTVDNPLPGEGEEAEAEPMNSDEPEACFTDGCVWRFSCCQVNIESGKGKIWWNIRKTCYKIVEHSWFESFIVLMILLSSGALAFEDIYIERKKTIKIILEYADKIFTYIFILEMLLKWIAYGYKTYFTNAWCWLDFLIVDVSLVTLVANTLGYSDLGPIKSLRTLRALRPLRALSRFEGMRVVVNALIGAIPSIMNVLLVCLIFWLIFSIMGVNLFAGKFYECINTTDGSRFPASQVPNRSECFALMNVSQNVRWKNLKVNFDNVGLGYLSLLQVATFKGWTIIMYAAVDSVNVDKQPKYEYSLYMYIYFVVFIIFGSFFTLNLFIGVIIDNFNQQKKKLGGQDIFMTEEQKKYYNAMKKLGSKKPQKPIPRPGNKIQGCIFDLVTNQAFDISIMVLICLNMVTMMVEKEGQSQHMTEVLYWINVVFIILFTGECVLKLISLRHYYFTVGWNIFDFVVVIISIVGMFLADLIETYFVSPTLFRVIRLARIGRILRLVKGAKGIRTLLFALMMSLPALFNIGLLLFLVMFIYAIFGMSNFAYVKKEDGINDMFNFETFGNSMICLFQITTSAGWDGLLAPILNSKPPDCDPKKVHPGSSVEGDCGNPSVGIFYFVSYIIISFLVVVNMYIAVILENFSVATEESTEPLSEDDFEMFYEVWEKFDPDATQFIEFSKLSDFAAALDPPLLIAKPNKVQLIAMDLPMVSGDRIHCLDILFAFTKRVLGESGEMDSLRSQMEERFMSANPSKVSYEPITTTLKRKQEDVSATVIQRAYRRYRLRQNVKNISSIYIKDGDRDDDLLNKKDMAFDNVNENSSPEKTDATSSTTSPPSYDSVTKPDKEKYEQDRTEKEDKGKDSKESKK

For `C[C@H](NC(=O)Cc1cc(F)cc(F)c1)C(=O)N[C@H](C(=O)OC(C)(C)C)c1ccccc1` [DAPT], the axon formation [1] was “able to form axons”, the “induced neuron cell markers and peripheral sensory neuron cell markers” value ([2]; DAPT lower than 3 μM) was “much lower than those in the serum control group” and the “expression of neuron marker Tuj” value ([2]; DAPT more than 10 μM) was “increased”. For the same molecule, the “expression of sodium ion channel 1.8 (SCN10A)” value ([2]; DAPT more than 10 μM) was “decreased”.

With `O=S(=O)(O)CCN1CCN(CCO)CC1` [HEPES buffer, HEPES] the “osmotic pressure with increase of concentration” value ([3]; HEPES buffer in medium) was “increased linearly”, the “osmotic pressure of the culture system” value ([3]; concentration more than 15 mM) was greater than 320 mOsm/kg and the cell morphology ([1]; HEPES buffer 5 mM, 10 mM, 15 mM) was “morphologically normal”. The cell tolerance ([1]; high concentration (15 mM)) was “cell intolerance began to appear”.

For `c1ccc2c(-c3cnn4cc(-c5ccc(N6CCNCC6)cc5)cnc34)ccnc2c1` [LDN193189], the “induction of cell types with neural axons” value ([1]; 12 nM, 50 nM and 180 nM) was “cell types with neural axons can be induced”, the “expression of Caspase3 relative to serum control group” value ([2]; LDN193189 180 nM or more) was “more than 1.5 times” and the “expression of sodium ion channel 1.8 (SCN10A)” value ([2]; LDN193189 below 12 nM) was “lower than that in serum control”.

For `Cc1cccc(-c2nn3c(c2-c2ccnc4ccc(C(N)=O)cc24)CCC3)n1` [LY2157299], the “expressions of SCN9A and SCN11A compared with the serum induction method” value ([2]; 7.5 μM and 25 μM) was “significantly increased”, the “expression of various sodium ion channel proteins versus concentration” value ([2]; Q-PCR, different LY2157299 concentrations in induction medium) was “linear increase in concentration versus protein expression” and the “ion channel protein expressions” value ([2]; concentrations of below 50 nM) was “significantly lower than normal levels”. For the same molecule, the “antagonism against PF-05089771 of the induced neurons” value (sodium ion channel 1.7; neurons induced by using LY2157299, 1 μM PF-05089771) was “more antagonism against PF-05089771”, the “electrophysiological strength of sodium ion channels of induced cells” value (sodium ion channel 1.7) was “significantly improved” and the “formation of neuron precursor cells (neural plate structure)” value (shortened to “formation of neuron precursor cells”) [4] was “neuron precursor cells formed”.

For `Cc1cccc(-c2[nH]ncc2-c2ccc3ncccc3n2)n1` [RepSox], the “formation of neuron precursor cells” value [4] was “neuron precursor cells formed”.

For `Cc1cccc(-c2[nH]c(C(C)(C)C)nc2-c2ccc3nccnc3c2)n1` [SB525334], the “formation of neuron precursor cells” value [4] was “neuron precursor cells formed”.

With `Cc1c[nH]c(/C=C2\C(=O)Nc3ccccc32)c1CCC(=O)O` [SU5402] the axon formation [1] was “could form axons”, the “cell death marker CASP3” value ([2]; SU5402 higher than 15 μM) was “significantly increased” and the “expression of ion channel protein compared with serum induction method” value ([2]; SU5402 lower than 3 μM) was “lower than the control level”. The “electrophysiological strength of sodium ion channels of induced cells” value (sodium ion channel 1.7) was “significantly improved”.

With `Cc1cccc(-c2[nH]c(CNc3ccccc3F)nc2-c2ccc3ncnn3c2)n1` [TEW-7197] the “formation of neuron precursor cells” value [4] was “neuron precursor cells formed”.

With CHIR98014 the “expression of SCN11A (Nav1.9) compared with the serum induction method” value [2] was “significantly increased”, the “expression of ion channel protein” value [2] was “lower than normal level” and the “expression of neuron marker Tuj” value [2] was “lower than that at other concentrations”.

B1: NT3: human-NT3 (Novoprotein, Cat. No. C079), added to sensory neuron cell medium (protein, UniProt P20783 139-257, looked up)
Neurotrophin-3: YAEHKSHRGEYSVCDSESLWVTDKSSAIDIRGHQVTVLGEIKTGNSPVKQYFYETRCKEARPVKNGCRGIDDKHWNSQCKTSQTYVRALTSENNKLVGWRWIRIDTSCVCALSRKIGRT
modifications: Neurotrophin-3
notes: human-NT3 (Novoprotein, Cat. No. C079), added to sensory neuron cell medium
In the case of B1, the “in vitro viability of induced neurons in long-term culture vs serum induction method” value [5] is reported as “effectively increase the in vitro viability”.
